Data set [1] deals with Peptidyl-prolyl cis-trans isomerase A (Homo sapiens, UniProt P62937).

These results are taken from ChEMBL document CHEMBL6071183, “Neuroprotective Effect of 2-(Benzyloxy)arylureas Is Not Related to CypD Inhibition nor Suppression of mPTP Opening” (ACS Med Chem Lett, 2024).

Converted amounts (≈) assume the structure as drawn.

Chain of Peptidyl-prolyl cis-trans isomerase A (P62937 whole entry): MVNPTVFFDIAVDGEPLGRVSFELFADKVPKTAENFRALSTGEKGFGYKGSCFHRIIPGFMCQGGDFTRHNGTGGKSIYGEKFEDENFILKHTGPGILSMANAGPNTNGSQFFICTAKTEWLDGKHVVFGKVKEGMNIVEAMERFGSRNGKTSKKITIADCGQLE

On to `O=C(Nc1ccc([N+](=O)[O-])cc1)Nc1ncccc1OCc1ccccc1`, for which, in the data set “physchem”, the solubility (commonly the concentration that dissolves in the medium under given conditions) is 20 µM (≈ 7.29 µg/mL). In data set [1], half-maximal inhibition (IC50) required 10 µM.
